Test results from patent US20230293544A1, “METHODS, DOSAGE REGIMENS, AND COMPOSITIONS FOR TREATING HIDRADENITIS” (PFIZER INC., priority 2022, published 2023).
Where “and” joins values, the source holds several entries; their conditions need not be identical. Identical values can stand only once.

Tests used:
[1] = test system: human patients with moderate to severe hidradenitis suppurativa (HS); test: Safety and tolerability in the phase 2A HS study (TEAEs, vital signs, laboratory abnormalities); assay type: in vivo
Description: The safety and tolerability of PF-06700841 over time was assessed using incidence of treatment-emergent adverse events (TEAEs), vital signs, incidence of specific clinical laboratory abnormalities including but not limited to hemoglobin, neutrophils, platelets, lymphocytes, lipids, eGFR, liver function tests (LFTs) and CPK.
All participants who received at least one dose of randomized study medication and have a baseline are included in the full analysis set (FAS), the population for the efficacy analysis. The safety analysis set (SAS) includes all participants who received at least one dose of investigational product. The HiSCR response data at week 16 comparing active treatment group and placebo group was to be analyzed using the Cochran Mantel Hanzel (CMH) test with Minimum Risk (MR) weight strategy after treating missing data as non-responders, adjusting for the stratification factor of prior anti-TNF failure status. Due to very small number of participants with concomitant use of antibiotics status at baseline in some subgroups, this was not included as stratum factor in the model. Hochberg's step-up procedure was employed to address any multiplicity arising from the analysis of 3 different treatments within the same study and overall familywise error rate was controlled at 0.1 level. All the continuous secondary endpoints were analyzed using ANCOVA model, where missing observation were imputed using multiple imputation (MI) method.

[2] = test system: human patients with moderate to severe hidradenitis suppurativa (HS); test: Phase 2A double-blind, parallel group study of efficacy vs placebo in hidradenitis suppurativa; assay type: in vivo
Text: This study provided data on efficacy, safety, tolerability, and pharmacokinetics of the therapeutic agents being examined in the oral treatment of moderate to severe HS. […] This included an up-to-6-week Screening Period, a 16-week Dosing Period and a 4-week Follow-up Period. The study enrolled a total of approximately 192 participants (expected to provide approximately 156 completers). Following the screening period, participants who meet eligibility criteria at the baseline visit were randomly assigned to receive 1 of 6 treatments. One oral dose level of each therapeutic agent, one of which was [(1S)-2,2-difluorocyclo-propyl][(1R,5S)-3-{2-[(1-methyl-1H-pyrazol-4-yl)amino]pyrimidin-4-yl}-3,8-diazabicyclo[3.2.1]oct-8-yl]methanone (45 mg QD), or matching placebo in a 3:1 ratio was investigated. For analysis, placebo groups were combined to yield final therapeutic agent:placebo ratio of 1:1:1:1 for each therapeutic agent and pooled placebo. No more than 30% of enrolled participants were inadequate anti-TNF responders. Participants were stratified according to whether they were an inadequate anti-TNF responder or not.
Additionally, no more than 20% of enrolled participants entered the study on a background of concomitant oral antibiotic therapy for treatment of HS; the dosing regimen (dose and frequency) must have been stable for at least 8 weeks (56 days) prior to the baseline (Day 1) visit and remained stable throughout study participation. Antibiotics taken on an “as needed” (PRN) basis were not considered a stable dose. Participants were stratified according to whether they were on a background of concomitant antibiotic therapy or not. The chronic toxicology package for each asset supported the planned study treatment duration of 16 weeks. Hidradenitis suppurative clinical response, the primary endpoint used, is defined as: […]
at least a 50% reduction in the total abscess and inflammatory nodule (AN) count relative to baseline, and no increase in abscess count, and no increase in draining fistula count.
The above Examples were a phase 2A double-blind, parallel group study assessing the efficacy of PF-06700841, a dual inhibitor of human tyrosine kinase 2 (TYK2) and Janus kinase 1 (JAK1), compared to Placebo in human patients with moderate to severe hidradenitis suppurativa (HS).
This was a randomized, double-blind, parallel-group multi-center study that enrolled approximately 192 participants with moderate to severe HS (with approximately 156 completers). Participants were randomized to PF-06700841 (along with two other treatments studied contemporaneously) and matching placebo in a 3:1 ratio. Each randomized participant was followed for a 16-week dosing period and a 4-week follow-up period. For analysis, placebo groups were combined to yield a 1:1:1:1 ratio for each treatment and pooled placebo. No more than 30% participants were enrolled with inadequate anti-TNF response and no more that 20% of the participants were on background antibiotic therapy, and stratified randomization strategy was adopted for this study. Efficacy data from all randomized participants until week 16 are in the scope of this report.
The primary objective of the study was to evaluate the efficacy and safety of PF-06700841 vs placebo in participants with HS. The primary efficacy endpoint was percentage of participants with HiSCR response (50% reduction from baseline in abscess and inflammatory nodule (AN) count, with no increase in abscess and draining fistula count from baseline) at week 16. […]

[3] = Population PK analysis in the phase 2A HS study; assay type: in vivo, human; conditions: preliminary population PK analysis
Description: Blood was collected to obtain the PK samples at pre-dose, Weeks 1, 2, 4, 6, 8, and 16, and at 0.5-, 1-, 2-, and 4-hours post-dose on Week 8. The available data was analyzed using population PK modeling.

[4] = test system: patients with moderate to severe HS; conditions: cited from earlier work

Compound | Safety and tolerability ([1]; 16-week dosing) | Deaths or cases of herpes zoster/simplex in the study ([1]; in vivo) | Severity of the majority of treatment-emergent adverse events (TEAEs) ([1]; in vivo) | Hazard ratio for time to first flare ([2]; Cox proportional model, vs placebo) | Difference from placebo in Skin Pain NRS30 response rate at week 16 ([2]; PGA-Skin Pain NRS at worst, participants with baseline score 3, LOCF) [%] | Probability of flare, Kaplan Meier plot of time to first flare (FIG. 5) ([2]; at 16 weeks, FAS, versus placebo) | HiSCR response rate at week 16 among Hurley Stage II participants ([2]; baseline Hurley Stage II, week 16) [%] | HiSCR response rate at week 16 among Hurley Stage III participants ([2]; baseline Hurley Stage III, week 16) [%] | More participants compared to placebo achieving total AN count of 0, 1 or 2 at week 16 ([2]; difference from placebo, week 16) [%] | Difference from placebo (δ) in percentage of participants experiencing at least one flare by week 16 ([2]; flare = at least 25% increase in AN count with minimum increase of 2 relative to baseline) [%] | Percentage of Participant Achieving HISCR Response at Week 16, Overall Response n/N (%) ([2]; overall population, FAS, NRI, week 16, 45 mg QD oral) | Difference from Placebo in percent change from baseline at week 16 for the IHS4 score ([2]; week 16) [%] | HiSCR response over time, plot (FIG. 2) ([2]; week 16, versus placebo) | Exposures in HS compared to healthy or other patient populations [3] | Rank-ordered secondary outcomes (lesions, pain, modified Sartorius score) vs placebo ([4]; Week 12, PIONEER II only) | Clinical response rate (HiSCR) at Week 12, PIONEER I ([4]; adalimumab weekly, PIONEER I, Week 12) [%] | Clinical response rate (HiSCR) at Week 12, PIONEER II ([4]; adalimumab weekly, PIONEER II, Week 12) [%]
Cn1cc(Nc2nccc(N3C[C@H]4CC[C@@H](C3)N4C(=O)[C@@H]3CC3(F)F)n2)cn1 [PF-06700841, [(1S)-2,2-difluorocyclo-propyl][(1R,5S)-3-{2-[(1-methyl-1H-pyrazol-4-yl)amino]pyrimidin-4-yl}-3,8-diazabicyclo[3.2.1]oct-8-yl]methanone] | generally safe and well tolerated | no deaths or cases of herpes zoster/simplex | mild and moderate | 0.4 | 6.5 | lowest probability of flare at 16 weeks | 59.4 | 40 | 15.6 | −22.3 | 51.9% and 27/52 (51.9) % | −14.6 | highest response at week 16 | expected exposures in HS appear to be achieved |  |  | 
adalimumab |  |  |  |  |  |  |  |  |  |  |  |  |  |  | significantly greater improvement than the placebo groups | 41.8 | 58.9
